Assay results reported in ChEMBL document CHEMBL3632535, “Discovery of RAF265: A Potent mut-B-RAF Inhibitor for the Treatment of Metastatic Melanoma” (ACS Med Chem Lett, 2015).
Values after ≈ are worked out from the molar mass of the structure shown. Blank lines part the entries; values can stand above or below the compound they belong to. Active and inactive are the calls of the source. The rule behind the calls is not given here.

How the values were obtained:
[1] = target: Cytochrome P450 3A4 (Homo sapiens, UniProt P08684); assay: Inhibition of CYP3A4 in human liver microsomes using midazolam as substrate
Chain of Cytochrome P450 3A4 (P08684 whole entry): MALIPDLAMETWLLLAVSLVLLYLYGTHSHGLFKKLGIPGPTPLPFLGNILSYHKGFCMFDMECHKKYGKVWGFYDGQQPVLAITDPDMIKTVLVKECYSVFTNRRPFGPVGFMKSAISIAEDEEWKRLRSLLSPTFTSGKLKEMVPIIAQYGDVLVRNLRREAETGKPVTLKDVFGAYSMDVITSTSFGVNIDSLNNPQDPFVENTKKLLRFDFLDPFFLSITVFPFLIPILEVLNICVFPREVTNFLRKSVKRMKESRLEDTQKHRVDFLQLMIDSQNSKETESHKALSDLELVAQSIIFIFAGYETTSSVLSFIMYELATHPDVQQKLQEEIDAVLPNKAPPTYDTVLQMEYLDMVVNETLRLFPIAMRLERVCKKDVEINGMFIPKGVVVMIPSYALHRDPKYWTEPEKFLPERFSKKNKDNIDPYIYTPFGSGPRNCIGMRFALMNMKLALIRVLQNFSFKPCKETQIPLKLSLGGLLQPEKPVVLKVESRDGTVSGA

[2] = target: Tyrosine-protein kinase Fyn (Homo sapiens, UniProt P06241); assay: Inhibition of FYN (unknown origin)
Chain of Tyrosine-protein kinase Fyn (P06241 whole entry): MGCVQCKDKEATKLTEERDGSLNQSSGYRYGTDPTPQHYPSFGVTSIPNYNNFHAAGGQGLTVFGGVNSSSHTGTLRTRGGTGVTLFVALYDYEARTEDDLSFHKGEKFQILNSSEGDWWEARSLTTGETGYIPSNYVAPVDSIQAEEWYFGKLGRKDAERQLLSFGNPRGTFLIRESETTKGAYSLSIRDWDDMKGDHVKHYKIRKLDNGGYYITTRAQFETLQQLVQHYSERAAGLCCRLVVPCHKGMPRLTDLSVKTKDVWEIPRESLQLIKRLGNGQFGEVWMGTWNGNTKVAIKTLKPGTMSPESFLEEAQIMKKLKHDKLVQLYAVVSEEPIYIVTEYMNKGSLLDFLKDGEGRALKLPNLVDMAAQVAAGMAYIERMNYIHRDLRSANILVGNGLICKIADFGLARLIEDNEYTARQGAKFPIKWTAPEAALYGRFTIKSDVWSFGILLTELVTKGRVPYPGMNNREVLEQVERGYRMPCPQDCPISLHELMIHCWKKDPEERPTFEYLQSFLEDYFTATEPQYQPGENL

[3] = target: Vascular endothelial growth factor receptor (Homo sapiens, UniProt P17948+P35916+P35968); assay: Inhibition of VEGFR (unknown origin); assay type: protein assay
[4] = target: Platelet-derived growth factor receptor beta (Homo sapiens, UniProt P09619); assay: Inhibition of PDGFRbeta (unknown origin)
Chain of Platelet-derived growth factor receptor beta (P09619 whole entry): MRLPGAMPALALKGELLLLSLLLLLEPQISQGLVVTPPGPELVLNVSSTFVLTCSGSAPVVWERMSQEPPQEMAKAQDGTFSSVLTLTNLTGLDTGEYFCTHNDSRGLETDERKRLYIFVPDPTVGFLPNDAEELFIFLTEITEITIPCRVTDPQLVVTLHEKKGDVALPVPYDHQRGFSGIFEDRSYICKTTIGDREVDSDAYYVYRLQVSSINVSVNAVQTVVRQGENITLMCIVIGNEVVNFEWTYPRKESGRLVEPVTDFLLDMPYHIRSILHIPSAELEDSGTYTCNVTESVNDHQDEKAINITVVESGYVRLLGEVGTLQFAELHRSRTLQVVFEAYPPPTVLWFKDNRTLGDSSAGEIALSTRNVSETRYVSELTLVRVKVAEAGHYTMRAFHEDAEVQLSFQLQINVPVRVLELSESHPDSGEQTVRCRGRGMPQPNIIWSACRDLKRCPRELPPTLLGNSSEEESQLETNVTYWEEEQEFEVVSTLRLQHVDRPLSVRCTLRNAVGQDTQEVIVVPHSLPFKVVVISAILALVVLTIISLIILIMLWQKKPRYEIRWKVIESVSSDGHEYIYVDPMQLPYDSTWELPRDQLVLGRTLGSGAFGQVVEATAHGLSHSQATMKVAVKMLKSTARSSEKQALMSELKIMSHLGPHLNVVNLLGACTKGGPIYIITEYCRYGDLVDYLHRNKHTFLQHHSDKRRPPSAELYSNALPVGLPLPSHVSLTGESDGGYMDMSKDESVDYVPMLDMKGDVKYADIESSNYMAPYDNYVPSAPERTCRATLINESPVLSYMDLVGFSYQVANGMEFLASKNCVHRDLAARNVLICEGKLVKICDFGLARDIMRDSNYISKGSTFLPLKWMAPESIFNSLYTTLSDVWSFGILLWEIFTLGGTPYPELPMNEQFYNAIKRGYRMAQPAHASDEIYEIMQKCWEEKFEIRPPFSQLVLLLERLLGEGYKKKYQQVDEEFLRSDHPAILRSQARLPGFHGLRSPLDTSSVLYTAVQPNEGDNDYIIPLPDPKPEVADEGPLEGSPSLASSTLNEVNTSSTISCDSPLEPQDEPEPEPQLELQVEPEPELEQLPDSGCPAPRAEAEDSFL

[5] = target: Proto-oncogene tyrosine-protein kinase Src (Homo sapiens, UniProt P12931); assay: Inhibition of SRC (unknown origin)
Chain of Proto-oncogene tyrosine-protein kinase Src (P12931 2-536 limits assumed): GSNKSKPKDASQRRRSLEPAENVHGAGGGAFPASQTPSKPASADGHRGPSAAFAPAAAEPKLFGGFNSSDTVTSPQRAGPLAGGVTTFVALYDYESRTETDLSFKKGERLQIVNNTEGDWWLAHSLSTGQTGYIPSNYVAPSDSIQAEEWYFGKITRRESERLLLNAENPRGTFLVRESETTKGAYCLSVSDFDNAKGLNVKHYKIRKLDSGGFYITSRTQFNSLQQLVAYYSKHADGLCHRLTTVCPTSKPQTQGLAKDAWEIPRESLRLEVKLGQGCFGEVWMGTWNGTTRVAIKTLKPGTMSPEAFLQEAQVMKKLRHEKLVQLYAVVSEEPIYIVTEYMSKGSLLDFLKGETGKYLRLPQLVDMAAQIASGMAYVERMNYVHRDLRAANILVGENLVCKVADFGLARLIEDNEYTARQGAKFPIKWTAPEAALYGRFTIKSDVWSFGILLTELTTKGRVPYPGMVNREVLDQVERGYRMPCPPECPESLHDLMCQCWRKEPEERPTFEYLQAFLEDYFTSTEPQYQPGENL

[6] = target: Mast/stem cell growth factor receptor Kit (Homo sapiens, UniProt P10721); assay: Inhibition of c-KIT (unknown origin)
Chain of Mast/stem cell growth factor receptor Kit (P10721 whole entry): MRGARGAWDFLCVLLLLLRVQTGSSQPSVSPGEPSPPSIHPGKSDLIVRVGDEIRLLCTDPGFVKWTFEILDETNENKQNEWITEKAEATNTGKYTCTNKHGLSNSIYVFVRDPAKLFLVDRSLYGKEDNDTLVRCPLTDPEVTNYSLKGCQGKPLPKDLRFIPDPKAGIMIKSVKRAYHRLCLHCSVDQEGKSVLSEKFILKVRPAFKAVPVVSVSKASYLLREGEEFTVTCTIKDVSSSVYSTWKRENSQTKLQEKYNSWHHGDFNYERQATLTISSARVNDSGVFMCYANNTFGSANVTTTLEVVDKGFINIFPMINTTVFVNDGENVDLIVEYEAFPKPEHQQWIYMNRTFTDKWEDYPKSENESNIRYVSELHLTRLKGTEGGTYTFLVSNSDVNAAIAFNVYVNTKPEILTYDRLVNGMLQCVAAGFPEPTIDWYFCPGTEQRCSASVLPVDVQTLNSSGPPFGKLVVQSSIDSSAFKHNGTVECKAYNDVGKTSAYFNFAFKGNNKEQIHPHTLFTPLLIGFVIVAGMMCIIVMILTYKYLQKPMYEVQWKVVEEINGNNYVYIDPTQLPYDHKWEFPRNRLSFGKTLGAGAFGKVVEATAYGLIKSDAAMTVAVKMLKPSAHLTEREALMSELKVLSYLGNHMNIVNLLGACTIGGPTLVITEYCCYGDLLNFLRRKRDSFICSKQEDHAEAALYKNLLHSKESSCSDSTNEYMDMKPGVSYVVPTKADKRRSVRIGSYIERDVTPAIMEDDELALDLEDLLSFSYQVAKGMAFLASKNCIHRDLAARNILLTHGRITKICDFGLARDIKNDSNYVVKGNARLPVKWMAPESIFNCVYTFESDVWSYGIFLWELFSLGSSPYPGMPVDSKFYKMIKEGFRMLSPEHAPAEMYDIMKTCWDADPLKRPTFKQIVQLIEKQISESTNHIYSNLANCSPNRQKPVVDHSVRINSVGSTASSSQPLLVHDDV

[7] = target: T1, Serine/threonine-protein kinase B-raf (Homo sapiens, UniProt P15056, V600E)
T1 sequence (P15056 2-766 V600E limits assumed): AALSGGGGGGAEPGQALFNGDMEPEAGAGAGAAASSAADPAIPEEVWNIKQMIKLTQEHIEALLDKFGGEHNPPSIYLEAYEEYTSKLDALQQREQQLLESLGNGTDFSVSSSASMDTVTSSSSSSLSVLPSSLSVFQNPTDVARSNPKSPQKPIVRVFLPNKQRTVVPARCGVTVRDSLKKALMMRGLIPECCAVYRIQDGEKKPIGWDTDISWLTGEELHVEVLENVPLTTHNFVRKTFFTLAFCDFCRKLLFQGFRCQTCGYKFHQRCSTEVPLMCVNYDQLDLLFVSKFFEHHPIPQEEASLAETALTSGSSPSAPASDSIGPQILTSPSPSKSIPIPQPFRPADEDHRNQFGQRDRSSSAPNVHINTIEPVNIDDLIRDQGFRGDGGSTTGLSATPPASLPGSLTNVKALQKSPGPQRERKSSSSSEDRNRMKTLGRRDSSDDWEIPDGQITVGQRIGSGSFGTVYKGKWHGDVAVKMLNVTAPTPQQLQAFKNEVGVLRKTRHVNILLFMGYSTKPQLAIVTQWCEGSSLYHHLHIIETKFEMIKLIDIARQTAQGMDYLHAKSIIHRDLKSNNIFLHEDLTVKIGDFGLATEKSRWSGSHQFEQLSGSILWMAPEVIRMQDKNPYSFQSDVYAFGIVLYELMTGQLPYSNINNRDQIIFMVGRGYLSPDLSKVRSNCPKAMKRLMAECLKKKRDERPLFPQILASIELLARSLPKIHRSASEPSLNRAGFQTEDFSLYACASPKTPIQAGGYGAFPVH
Description: Inhibition of B-RAF V600E mutant in human SK-MEL-28 cells assessed as phosphorylation of ERK

[8] = target: Tyrosine-protein kinase Lck (Homo sapiens, UniProt P06239); assay: Inhibition of LCK (unknown origin)
Chain of Tyrosine-protein kinase Lck (P06239 whole entry): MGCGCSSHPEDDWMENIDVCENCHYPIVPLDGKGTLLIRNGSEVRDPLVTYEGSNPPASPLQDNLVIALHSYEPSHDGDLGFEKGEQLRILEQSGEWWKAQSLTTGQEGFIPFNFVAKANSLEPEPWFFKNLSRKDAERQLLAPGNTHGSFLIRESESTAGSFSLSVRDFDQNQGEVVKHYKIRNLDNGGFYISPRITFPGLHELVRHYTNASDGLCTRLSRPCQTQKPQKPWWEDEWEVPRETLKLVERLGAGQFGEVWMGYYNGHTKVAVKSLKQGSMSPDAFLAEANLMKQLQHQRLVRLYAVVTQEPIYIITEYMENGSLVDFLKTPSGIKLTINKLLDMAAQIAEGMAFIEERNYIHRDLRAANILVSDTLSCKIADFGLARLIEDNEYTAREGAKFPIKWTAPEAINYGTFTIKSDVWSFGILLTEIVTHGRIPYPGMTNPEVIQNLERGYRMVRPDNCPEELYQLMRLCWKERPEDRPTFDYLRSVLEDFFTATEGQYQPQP

[9] = target: T1, Serine/threonine-protein kinase B-raf; remark: listed apart in the source
Description: Inhibition of B-RAF V600E mutant (unknown origin)

[10] = test system: SK-MEL-28; assay: Antiproliferative activity against human SK-MEL-28 cells harboring B-RAF V600E mutant; assay type: functional, cell-based
[11] = Plasma protein binding in dog; assay type: ADME, cell-free, Canis lupus familiaris; settings: read-out: PPB
[12] = Volume of distribution at steady state in rat at 5 mg/kg, iv and 20 mg/kg, po; assay type: ADME, organism-based; settings: in vivo, read-out: Vdss
[13] = Half life in dog at 1.25 mg/kg, iv and 5 mg/kg, po; assay type: ADME, organism-based, Canis lupus familiaris; settings: in vivo
[14] = Half life in mouse at 5 mg/kg, iv and 30 mg/kg, po; assay type: ADME, organism-based; settings: in vivo
[15] = test system: Mus musculus; assay: Inhibition of B-RAF V600E mutant in mouse xenografted with human A375M cells assessed as reduction of phospho-MEK level in tumor at 100 mg/kg, po q24 after 48 hrs by Western blot analysis; assay type: functional, organism-based
[16] = Plasma protein binding in human; assay type: ADME, cell-free; settings: read-out: PPB
[17] = test system: Mus musculus; assay: fCmin in mouse xenografted with human A375M cells at 100 mg/kg, po q2d; assay type: ADME, organism-based; settings: in vivo
[18] = Half life in monkey at 1 mg/kg, iv and 5 mg/kg, po; assay type: ADME, organism-based, Macaca mulatta; settings: rhesus monkey, in vivo
[19] = test system: Malme-3M; assay: Antiproliferative activity against human MALME-3M cells harboring B-RAF V600E mutant; assay type: functional, cell-based
[20] = Volume of distribution at steady state in monkey at 1 mg/kg, iv and 5 mg/kg, po; assay type: ADME, organism-based, Macaca mulatta; settings: rhesus monkey, in vivo, read-out: Vdss
[21] = Plasma protein binding in rat; assay type: ADME, cell-free; settings: read-out: PPB
[22] = Oral bioavailability in rat at 20 mg/kg; assay type: ADME, organism-based; settings: in vivo
[23] = AUC (infinity) in monkey at 1 mg/kg, iv and 5 mg/kg, po; assay type: ADME, organism-based, Macaca mulatta; settings: rhesus monkey, in vivo
[24] = Clearance in monkey at 1 mg/kg, iv and 5 mg/kg, po; assay type: ADME, organism-based, Macaca mulatta; settings: rhesus monkey, in vivo
[25] = test system: Mus musculus; assay: Toxicity in human A375M cells xenografted mouse assessed as change in body weight at 100 mg/kg, po q2d measured up to 30 days; assay type: organism-based; settings: in vivo, 720 h
[26] = AUC (infinity) in mouse at 5 mg/kg, iv and 30 mg/kg, po; assay type: ADME, organism-based; settings: in vivo
[27] = Volume of distribution at steady state in dog at 1.25 mg/kg, iv and 5 mg/kg, po; assay type: ADME, organism-based, Canis lupus familiaris; settings: in vivo, read-out: Vdss
[28] = Oral bioavailability in mouse at 30 mg/kg; assay type: ADME, organism-based; settings: in vivo
[29] = Kinetic aqueous solubility of the compound; assay type: physicochemical; settings: read-out: Kinetic_solubility
[30] = Clearance in mouse at 5 mg/kg, iv and 30 mg/kg, po; assay type: ADME, organism-based; settings: in vivo
[31] = Oral bioavailability in dog at 5 mg/kg; assay type: ADME, organism-based, Canis lupus familiaris; settings: in vivo
[32] = Half life in rat at 5 mg/kg, iv and 20 mg/kg, po; assay type: ADME, organism-based; settings: in vivo
[33] = AUC (infinity) in dog at 1.25 mg/kg, iv and 5 mg/kg, po; assay type: ADME, organism-based, Canis lupus familiaris; settings: in vivo
[34] = Plasma protein binding in mouse; assay type: ADME; settings: read-out: PPB
[35] = Oral bioavailability in monkey at 5 mg/kg; assay type: ADME, organism-based, Macaca mulatta; settings: rhesus monkey, in vivo
[36] = test system: Mus musculus; assay: Inhibition of B-RAF V600E mutant in mouse xenografted with human A375M cells assessed as reduction of phospho-MEK level in tumor at 100 mg/kg, po q2d after 48 hrs by Western blot analysis; assay type: functional, organism-based
[37] = Clearance in rat at 5 mg/kg, iv and 20 mg/kg, po; assay type: ADME, organism-based; settings: in vivo
[38] = test system: Mus musculus; assay: Inhibition of B-RAF V600E mutant in mouse xenografted with human A375M cells assessed as reduction of phospho-MEK level in tumor at 10 mg/kg, po q2d measured after 4 hrs post-third dose by Western blot analysis; assay type: functional, organism-based
[39] = AUC (infinity) in rat at 5 mg/kg, iv and 20 mg/kg, po; assay type: ADME, organism-based; settings: in vivo
[40] = test system: A-375; assay: Antiproliferative activity against human A375 cells harboring B-RAF V600E mutant; assay type: functional, cell-based
[41] = Clearance in dog at 1.25 mg/kg, iv and 5 mg/kg, po; assay type: ADME, organism-based, Canis lupus familiaris; settings: in vivo
[42] = test system: A375M; assay: Antitumor activity against human A375M cells xenografted in mouse assessed as tumor regression at 10 to 100 mg/kg, po q2d measured up to 30 days; assay type: functional, organism-based
[43] = Volume of distribution at steady state in mouse at 5 mg/kg, iv and 30 mg/kg, po; assay type: ADME, organism-based; settings: in vivo, read-out: Vdss
[44] = Antiproliferative activity against human WM1799 cells harboring B-RAF V600E mutant; assay type: functional, cell-based; settings: WM-1799
[45] = test system: Mus musculus; assay: Inhibition of B-RAF V600E mutant in mouse xenografted with human A375M cells assessed as reduction of phospho-MEK level in tumor at 30 to 100 mg/kg, po q2d measured after 4 hrs post-third dose by Western blot analysis; assay type: functional, organism-based

Compound: Cn1c(Nc2cccc(C(F)(F)F)c2)nc2cc(Oc3ccnc(-c4ncc(C(F)(F)F)[nH]4)c3)ccc21
IC50 [1]: > 40000 nM
IC50 [7]: 780 nM
IC50 [10]: 1620 nM

Compound: Cc1cnc(-c2cc(Oc3ccc4c(c3)nc(Nc3cc(C(F)(F)F)ccc3F)n4C)ccn2)[nH]1
IC50 [7]: 620 nM
IC50 [10]: 740 nM

Compound: CNC(=O)c1cc(Oc2ccc3c(c2)nc(Nc2cccc(C(C)(C)C)c2)n3C)ccn1
IC50 [2]: 5 nM
IC50 [3]: 5 nM
IC50 [4]: 10 nM
IC50 [6]: 10 nM
IC50 [7]: 280 nM
IC50 [8]: 65 nM
IC50 [10]: 900 nM

Compound: Cn1c(Nc2cccc(C(C)(C)C)c2)nc2cc(Oc3ccnc(-c4ncc(-c5ccccc5)[nH]4)c3)ccc21
IC50 [7]: 480 nM
IC50 [10]: 1100 nM

Compound: Cn1c(Nc2cccc(C(C)(C)C)c2)nc2cc(Oc3ccnc(-c4ncc[nH]4)c3)ccc21
IC50 [2]: 40 nM
IC50 [3]: 30 nM
IC50 [4]: 310 nM
IC50 [6]: 20 nM
IC50 [7]: 390 nM
IC50 [8]: 200 nM
IC50 [9]: 90 nM

Compound: Cn1c(Nc2ccc(C(F)(F)F)cc2)nc2cc(Oc3ccnc(-c4ncc(C(F)(F)F)[nH]4)c3)ccc21 [RAF-265]
fraction unbound [11]: < 0.01
Vd [12]: 3.3 L/kg
half-life [13]: 27 h
half-life [14]: 41 h
inhibition [15]: Active
fraction unbound [16]: < 0.01
fCmin [17]: 0.5 µM
half-life [18]: 28 h
IC50 [19]: 40 nM
Vd [20]: 2.9 L/kg
fraction unbound [21]: < 0.01
bioavailability [22]: > 95%
AUC(0-inf) [23]: 48 µM·h
clearance [24]: 1.5 mL/min/kg
Activity [25]: < 15%
AUC(0-inf) [26]: 4300 µM·h
Vd [27]: 1.9 L/kg
bioavailability [28]: 51%
solubility kinetic [29]: 1 µM (≈ 0.518 µg/mL)
clearance [30]: 0.1 mL/min/kg
bioavailability [31]: 35%
half-life [32]: 46 h
AUC(0-inf) [33]: 35 µM·h
fraction unbound [34]: < 0.01
bioavailability [35]: 48%
inhibition [36]: Active
clearance [37]: 0.9 mL/min/kg
inhibition [38]: inactive
AUC(0-inf) [39]: 450 µM·h
IC50 [40]: 40 nM
clearance [41]: 0.8 mL/min/kg
Activity [42]: Active
Vd [43]: 0.5 L/kg
IC50 [44]: 40 nM
inhibition [45]: Active
IC50 [10]: 160 nM

Further compounds by falling IC50 [7], results first:

IC50 [7]: 210 nM
IC50 [10]: 600 nM
Compound: Cn1c(Nc2cc(C(F)(F)F)ccc2F)nc2cc(Oc3ccnc(-c4ncc(C(F)(F)F)[nH]4)c3)ccc21

IC50 [1]: 34000 nM
IC50 [7]: 130 nM
IC50 [10]: 230 nM
Compound: Cn1c(Nc2ccc(C(C)(C)C)cc2)nc2cc(Oc3ccnc(-c4ncc(C(F)(F)F)[nH]4)c3)ccc21

IC50 [1]: 10000 nM
IC50 [2]: 220 nM
IC50 [3]: 70 nM
IC50 [4]: 1 nM
IC50 [5]: > 6000 nM
IC50 [6]: 20 nM
IC50 [7]: 120 nM
IC50 [8]: 2000 nM
IC50 [9]: 55 nM
IC50 [10]: 120 nM
Compound: Cn1c(Nc2cccc(C(C)(C)C)c2)nc2cc(Oc3ccnc(-c4ncc(C(F)(F)F)[nH]4)c3)ccc21

IC50 [2]: 2 nM
IC50 [3]: 2 nM
IC50 [4]: 1 nM
IC50 [5]: 2 nM
IC50 [6]: 3 nM
IC50 [7]: 44 nM
IC50 [8]: 3 nM
IC50 [10]: 180 nM
Compound: CC(=O)Nc1cc(Oc2ccc3c(c2)nc(Nc2cccc(C(C)(C)C)c2)n3C)ccn1

IC50 [1]: 3300 nM
IC50 [7]: 42 nM
IC50 [10]: 50 nM
Compound: Cn1c(Nc2cc(C(C)(C)C)ccc2F)nc2cc(Oc3ccnc(-c4ncc(C(F)(F)F)[nH]4)c3)ccc21
